From US9730450B2, “Use of isosorbide monoesters as antimicrobial active substances” (CLARIANT INTERNATIONAL LTD., priority 2011, dated 2017)
Converted amounts (≈) assume the structure as drawn. Where two headings read alike, the source gives them in different places. Blank lines part the entries; values can stand above or below the compound they belong to.

What was measured:
[1] = test system: bacteria, fungi and yeasts; assay: Antimicrobial efficacy, overall statement; format: cell-based
Protocol: (§1) Below, the antimicrobial efficacy of isosorbide caprylate 1 in butyl polyglycol against bacteria, fungi and yeasts is examined. For the tests with bacteria, isosorbide caprylate 1 was diluted with butyl polyglycol and then, at 50° C., added to liquid CASO agar (casein-peptone agar) buffered to pH 7 (+1-0.2) in various concentrations (hereinbelow referred to as compositions B1, B2, etc.). For the tests with fungi and yeasts, isosorbide caprylate 1 was diluted with butyl polyglycol and then added to liquid Sabouraud 4% dextrose agar buffered to pH 5.6 (+1-0.2) in various concentrations (hereinbelow referred to as compositions PH1, PH2, etc.). The compositions B1, B2, etc. and PH1, PH2 etc. were each poured into Petri dishes and each inoculated with identical amounts of bacteria, fungi and yeasts. The minimum inhibitory concentration (MIC) is the concentration at which inhibition of the growth of the bacteria, fungi and yeasts in the compositions B1, B2, etc. and PH1, PH2, etc. occurs.
(§2) Analogously to the determination of the antimicrobial activity of isosorbide caprylate 1, the antimicrobial activity firstly of a mixture comprising 89.6% by weight of isosorbide dicaprylate and 9.4% by weight of isosorbide monocaprylate (remainder: 1% by weight) (hereinbelow referred to as “isosorbide dicaprylate”) and, secondly, pure isosorbide was determined in further test series.

[2] = test system: bacteria, fungi and yeasts; conditions: general statement, no test described, cited from earlier work
Candida albicans = assay: MIC agar dilution test, yeasts; format: cell-based; conditions: Candida albicans (Y); Sabouraud 4% dextrose agar buffered to pH 5.6; corrected for dilution effect of butyl polyglycol; read-out: Minimum inhibitory concentration (MIC)
Protocol: as §1, §2

Aspergillus terreus = assay: MIC agar dilution test, fungi; format: cell-based; conditions: Aspergillus terreus (F); Sabouraud 4% dextrose agar buffered to pH 5.6; corrected for dilution effect of butyl polyglycol; read-out: Minimum inhibitory concentration (MIC)
Protocol: as §1, §2

Penicillium minioluteum = assay: MIC agar dilution test, fungi; format: cell-based; conditions: Talaromyces minioluteus; Penicillium minioluteum (F); Sabouraud 4% dextrose agar buffered to pH 5.6; corrected for dilution effect of butyl polyglycol; read-out: Minimum inhibitory concentration (MIC)
Protocol: as §1, §2

Aspergillus brasiliensis = assay: MIC agar dilution test, fungi; format: cell-based; conditions: Aspergillus brasiliensis (F); Sabouraud 4% dextrose agar buffered to pH 5.6; corrected for dilution effect of butyl polyglycol; read-out: Minimum inhibitory concentration (MIC)
Protocol: as §1, §2

Fusarium solani = assay: MIC agar dilution test, fungi; format: cell-based; conditions: Fusarium solani (F); Sabouraud 4% dextrose agar buffered to pH 5.6; corrected for dilution effect of butyl polyglycol; read-out: Minimum inhibitory concentration (MIC)
Protocol: as §1, §2

Penicillium funicolosium = assay: MIC agar dilution test, fungi; format: cell-based; conditions: Penicillium funicolosium (F); Sabouraud 4% dextrose agar buffered to pH 5.6; corrected for dilution effect of butyl polyglycol; read-out: Minimum inhibitory concentration (MIC)
Protocol: as §1, §2

Proteus vulgaris = assay: MIC agar dilution test, bacteria; format: cell-based; conditions: Proteus vulgaris (B); CASO agar buffered to pH 7; corrected for dilution effect of butyl polyglycol; read-out: Minimum inhibitory concentration (MIC)
Protocol: as §1, §2

Escherichia coli = assay: MIC agar dilution test, bacteria; format: cell-based; conditions: Escherichia coli (B); CASO agar buffered to pH 7; corrected for dilution effect of butyl polyglycol; read-out: Minimum inhibitory concentration (MIC)
Protocol: as §1, §2

Pseudomonas aeruginosa = assay: MIC agar dilution test, bacteria; format: cell-based; conditions: Pseudomonas aeruginosa (B); CASO agar buffered to pH 7; corrected for dilution effect of butyl polyglycol; read-out: Minimum inhibitory concentration (MIC)
Protocol: as §1, §2

Klebsiella pneumoniae = assay: MIC agar dilution test, bacteria; format: cell-based; conditions: Klebsiella pneumoniae (B); CASO agar buffered to pH 7; corrected for dilution effect of butyl polyglycol; read-out: Minimum inhibitory concentration (MIC)
Protocol: as §1, §2

Enterobacter aerogenes = assay: MIC agar dilution test, bacteria; format: cell-based; conditions: Klebsiella aerogenes; Enterobacter aerogenes (B); CASO agar buffered to pH 7; corrected for dilution effect of butyl polyglycol; read-out: Minimum inhibitory concentration (MIC)
Protocol: as §1, §2

Citrobacter freundii = assay: MIC agar dilution test, bacteria; format: cell-based; conditions: Citrobacter freundii (B); CASO agar buffered to pH 7; corrected for dilution effect of butyl polyglycol; read-out: Minimum inhibitory concentration (MIC)
Protocol: as §1, §2

Pseudomonas oleovorans = assay: MIC agar dilution test, bacteria; format: cell-based; conditions: Ectopseudomonas oleovorans; Pseudomonas oleovorans (B); CASO agar buffered to pH 7; corrected for dilution effect of butyl polyglycol; read-out: Minimum inhibitory concentration (MIC)
Protocol: as §1, §2

Staphylococcus aureus = assay: MIC agar dilution test, bacteria; format: cell-based; conditions: Staphylococcus aureus (B); CASO agar buffered to pH 7; corrected for dilution effect of butyl polyglycol; read-out: Minimum inhibitory concentration (MIC)
Protocol: as §1, §2

Compound: isosorbide monocaprylate
antimicrobial activity (in words) ([1]; concluded from activity of isosorbide caprylate 1 and inactivity of its other constituents, in particular as fungicide against fungi and yeasts): significant antimicrobial activity

Compound: CCCCCCCC(=O)O [caprylic acid]
antimicrobial activity (in words) ([2]; at a pH of 6 or above): no antimicrobial activity
antimicrobial activity (in words) [2]: antimicrobially effective

MIC (Candida albicans): 10000 µg/mL (≈ 68.4 mM)
MIC (Aspergillus terreus): 10000 µg/mL (≈ 68.4 mM)
MIC (Penicillium minioluteum): 10000 µg/mL (≈ 68.4 mM)
MIC (Aspergillus brasiliensis): 10000 µg/mL (≈ 68.4 mM)
MIC (Fusarium solani): 10000 µg/mL (≈ 68.4 mM)
MIC (Penicillium funicolosium): 10000 µg/mL (≈ 68.4 mM)
MIC (Proteus vulgaris): 10000 µg/mL (≈ 68.4 mM)
MIC (Escherichia coli): 10000 µg/mL (≈ 68.4 mM)
MIC (Pseudomonas aeruginosa): 10000 µg/mL (≈ 68.4 mM)
MIC (Klebsiella pneumoniae): 10000 µg/mL (≈ 68.4 mM)
MIC (Enterobacter aerogenes): 10000 µg/mL (≈ 68.4 mM)
MIC (Citrobacter freundii): 10000 µg/mL (≈ 68.4 mM)
MIC (Pseudomonas oleovorans): 10000 µg/mL (≈ 68.4 mM)
MIC (Staphylococcus aureus): 10000 µg/mL (≈ 68.4 mM)
Compound: O[C@@H]1CO[C@H]2[C@@H]1OC[C@@H]2O [isosorbide]
antimicrobial activity (in words) ([1]; summary of MIC results of Tables 1 and 2): neither isosorbide nor isosorbide dicaprylate is antimicrobially active
